# According to patent US12281149B2, “Modulators of G-protein coupled receptors” (priority 2021, dated 2025):
# *1 amine or outer side, *2 acyl side, *3 side chain or, on linkers, in order; H or OH if unused. Where a SMILES comes first, the peptide text is derived from it. Side-chain parts run from the residue outwards. [ ]: non-standard residue; d: D form. The star is where a group is joined. cPentCO(1-(4-ClPh)) = O=C(C1(c2ccc(Cl)cc2)CCCC1)*; C20 diacid = O=C(O)CCCCCCCCCCCCCCCCCCC(=O)*; γGlu = O=C(O)[C@H](CCC(=O)[*:2])N[*:1]; αMeF = C[C@](N)(Cc1ccccc1)C(=O)O; X60 = O=C(C1(c2cccnc2)CCCC1)*; X41 = C[C@H](C(=O)*)c1ccccc1; AEEA = NCCOCCOCC(=O)O; Aib = CC(C)(N)C(=O)O; CO = O=C([*:1])[*:2]; X63 = Fc1ccc(N*)cc1F; GABA = NCCCC(=O)O; βAla = NCCC(=O)O
# How the values were obtained:
# Assay type in all cases: cell-based
# GLP-1 receptor [1] = target: T1, GLP-1 receptor (Homo sapiens, UniProt P43220); test: PathHunter β-arrestin assay, GLP-1 receptor; design: host or cells: PathHunter CHO-K1 GLP1R β-Arrestin Cell Line; conditions: β-arrestin-2 recruitment, PathHunter CHO-K1 GLP1R β-Arrestin Cell Line, 90 min at 37° C.; normalized to GLP-1; read-out: GLP-1R β Arrestin EC50
# T1 sequence (P43220 24-463): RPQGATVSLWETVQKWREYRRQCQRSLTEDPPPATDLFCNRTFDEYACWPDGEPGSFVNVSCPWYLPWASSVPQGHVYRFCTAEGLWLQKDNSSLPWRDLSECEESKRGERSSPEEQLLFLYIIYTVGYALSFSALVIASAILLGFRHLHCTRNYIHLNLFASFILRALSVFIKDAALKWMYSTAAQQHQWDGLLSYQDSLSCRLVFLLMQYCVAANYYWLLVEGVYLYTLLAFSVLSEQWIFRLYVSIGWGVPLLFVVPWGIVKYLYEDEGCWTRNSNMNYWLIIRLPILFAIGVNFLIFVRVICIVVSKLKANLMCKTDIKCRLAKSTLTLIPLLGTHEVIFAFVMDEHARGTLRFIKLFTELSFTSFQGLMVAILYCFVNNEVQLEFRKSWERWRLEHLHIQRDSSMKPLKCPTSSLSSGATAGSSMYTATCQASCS
# GLP-1 receptor [2] = target: T1, GLP-1 receptor; test: HitHunter cAMP assay, GLP-1 receptor; conditions: for EC50: CHO cells stably expressing human GLP-1 receptor, cAMP accumulation, 30 min, read-out: EC50 GLP-1R; for Emax: CHO cells, cAMP, normalized to maximum signal from GLP-1 (high) and DMSO (low), read-out: Emax GLP-1R
# GIP receptor [3] = target: T2, GIP receptor (Homo sapiens, UniProt P48546); test: PathHunter β-arrestin assay, GIP receptor; design: host or cells: PathHunter CHO-K1 GIPR β-Arrestin Cell Line; conditions: β-arrestin-2 recruitment, PathHunter CHO-K1 GIPR β-Arrestin Cell Line, 90 min at 37° C.; normalized to GIP; read-out: GIPR β Arrestin EC50
# T2 sequence (P48546 22-466): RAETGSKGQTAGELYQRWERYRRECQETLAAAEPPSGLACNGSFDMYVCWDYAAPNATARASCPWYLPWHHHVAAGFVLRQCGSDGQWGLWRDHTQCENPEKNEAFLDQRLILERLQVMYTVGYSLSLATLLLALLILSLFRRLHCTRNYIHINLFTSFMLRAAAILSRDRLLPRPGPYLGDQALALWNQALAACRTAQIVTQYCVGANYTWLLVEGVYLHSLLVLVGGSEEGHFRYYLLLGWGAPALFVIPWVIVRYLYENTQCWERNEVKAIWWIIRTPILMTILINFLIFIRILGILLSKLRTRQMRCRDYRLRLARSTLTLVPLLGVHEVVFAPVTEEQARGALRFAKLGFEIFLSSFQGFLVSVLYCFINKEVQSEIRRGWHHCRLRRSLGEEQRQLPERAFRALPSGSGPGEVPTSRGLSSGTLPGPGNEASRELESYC
# GIP receptor [4] = target: T2, GIP receptor; test: HitHunter cAMP assay, GIP receptor; conditions: for EC50: CHO cells stably expressing GIP receptor, cAMP accumulation, 30 min, read-out: EC50 GIP-1R; for Emax: CHO cells, cAMP, normalized to maximum signal from GIP (high) and DMSO (low), read-out: Emax GIP-1R
Compound,EC50 (GLP-1 receptor [1]),EC50 (GLP-1 receptor [2]),Emax (GLP-1 receptor [2]),EC50 (GIP receptor [3]),EC50 (GIP receptor [4]),Emax (GIP receptor [4])
CC[C@H](C)[C@H](NC(=O)[C@H](CC(C)C)NC(=O)[C@H](Cc1c[nH]c2ccccc12)NC(=O)[C@H](CCC(N)=O)NC(=O)[C@@H](NC(=O)[C@H](Cc1ccccc1)NC(=O)[C@H](C)NC(=O)[C@H](CCCCNC(=O)COCCOCCNC(=O)COCCOCCNC(=O)CC[C@H](NC(=O)CCCCCCCCCCCCCCCCCCC(=O)O)C(=O)O)NC(=O)[C@H](CCC(N)=O)NC(=O)[C@H](C)NC(=O)[C@@H](NC(=O)[C@H](CCCCN)NC(=O)[C@H](CC(=O)O)NC(=O)[C@H](CC(C)C)NC(=O)C(C)(C)NC(=O)[C@@H](NC(=O)[C@H](CO)NC(=O)[C@H](Cc1ccc(O)cc1)NC(=O)[C@H](CC(=O)O)NC(=O)[C@H](CO)NC(=O)[C@@H](NC(=O)[C@H](Cc1ccccc1)NC(=O)[C@@H](NC(=O)CNC(=O)[C@H](CCC(=O)O)NC(=O)CCNC(=O)C1(c2ccc(Cl)cc2)CCCC1)[C@@H](C)O)[C@@H](C)O)[C@@H](C)CC)[C@@H](C)CC)C(C)C)C(=O)N[C@@H](C)C(=O)NCC(=O)NCC(=O)N1CCC[C@H]1C(=O)N[C@@H](CO)C(=O)N[C@@H](CO)C(=O)NCC(=O)N[C@@H](C)C(=O)N1CCC[C@H]1C(=O)N1CCC[C@H]1C(=O)N1CCC[C@H]1C(=O)N[C@@H](CO)C(N)=O [Compound 217] ({cPentCO(1-(4-ClPh))-βAla}-EGTFTSDYSI[Aib]LDKIAQK([AEEA-AEEA-γGlu-C20 diacid])AFVQWLIAGGPSSGAPPPS-NH2),> 1000 nM,0.1 to 1 nM,101%,> 1000 nM,0.1 to 1 nM,108%
CC[C@H](C)[C@H](NC(=O)[C@H](CC(C)C)NC(=O)[C@H](Cc1c[nH]c2ccccc12)NC(=O)[C@H](CCC(N)=O)NC(=O)[C@@H](NC(=O)[C@H](Cc1ccccc1)NC(=O)[C@H](C)NC(=O)[C@H](CCCCNC(=O)COCCOCCNC(=O)COCCOCCNC(=O)CC[C@H](NC(=O)CCCCCCCCCCCCCCCCCCC(=O)O)C(=O)O)NC(=O)[C@H](CCC(N)=O)NC(=O)[C@H](C)NC(=O)[C@@H](NC(=O)[C@H](CCCCN)NC(=O)[C@H](CC(=O)O)NC(=O)[C@H](CC(C)C)NC(=O)C(C)(C)NC(=O)[C@@H](NC(=O)[C@H](CO)NC(=O)[C@H](Cc1ccc(O)cc1)NC(=O)[C@H](CC(=O)O)NC(=O)[C@H](CO)NC(=O)[C@@H](NC(=O)[C@H](Cc1ccccc1)NC(=O)[C@@H](NC(=O)CNC(=O)[C@H](CCC(=O)O)NC(=O)CCNC(=O)[C@@H](C)c1ccccc1)[C@@H](C)O)[C@@H](C)O)[C@@H](C)CC)[C@@H](C)CC)C(C)C)C(=O)N[C@@H](C)C(=O)NCC(=O)NCC(=O)N1CCC[C@H]1C(=O)N[C@@H](CO)C(=O)N[C@@H](CO)C(=O)NCC(=O)N[C@@H](C)C(=O)N1CCC[C@H]1C(=O)N1CCC[C@H]1C(=O)N1CCC[C@H]1C(=O)N[C@@H](CO)C(N)=O [Compound 211] ({X41-βAla}-EGTFTSDYSI[Aib]LDKIAQK([AEEA-AEEA-γGlu-C20 diacid])AFVQWLIAGGPSSGAPPPS-NH2),> 1000 nM,0.1 to 1 nM,107%,> 1000 nM,10 to 100 nM,103%
"CC[C@H](C)[C@H](NC(=O)[C@H](CO)NC(=O)[C@H](CCCCNC(=O)COCCOCCNC(=O)COCCOCCNC(=O)CC[C@H](NC(=O)CCCCCCCCCCCCCCCCCCC(=O)O)C(=O)O)NC(=O)[C@H](CC(=O)O)NC(=O)[C@H](CO)NC(=O)[C@@H](NC(=O)[C@H](Cc1ccccc1)NC(=O)[C@@H](NC(=O)CNC(=O)[C@H](CCC(=O)O)NC(=O)CCNC(=O)[C@]1(c2ccccc2)CNC(=O)C1)[C@@H](C)O)[C@@H](C)O)C(=O)N[C@@H](Cc1ccc(O)cc1)C(=O)N[C@@H](CC(C)C)C(=O)N[C@@H](CC(=O)O)C(=O)N[C@@H](CCCCN)C(=O)N[C@@H](CCC(N)=O)C(=O)N[C@@H](C)C(=O)N[C@@H](C)C(=O)NC(C)(C)C(=O)N[C@@H](CCC(=O)O)C(=O)N[C@@H](Cc1ccccc1)C(=O)N[C@H](C(=O)N[C@@H](CC(N)=O)C(=O)N[C@@H](Cc1c[nH]c2ccccc12)C(=O)N[C@@H](CC(C)C)C(=O)N[C@@H](CC(C)C)C(=O)N[C@@H](C)C(=O)NCC(=O)NCC(=O)N1CCC[C@H]1C(=O)N[C@@H](CO)C(=O)N[C@@H](CO)C(=O)NCC(=O)N[C@@H](C)C(=O)N1CCC[C@H]1C(=O)N1CCC[C@H]1C(=O)N1CCC[C@H]1C(=O)N[C@@H](CO)C(N)=O)C(C)C (single isomer, unassigned) [Compound 129]",> 1000 nM,1 to 10 nM,108%,> 1000 nM,10 to 100 nM,106%
CC[C@H](C)[C@H](NC(=O)[C@H](CC(C)C)NC(=O)[C@H](Cc1c[nH]c2ccccc12)NC(=O)[C@H](CCC(N)=O)NC(=O)[C@@H](NC(=O)[C@H](Cc1ccccc1)NC(=O)[C@H](C)NC(=O)[C@H](CCCCNC(=O)COCCOCCNC(=O)COCCOCCNC(=O)CC[C@H](NC(=O)CCCCCCCCCCCCCCCCCCC(=O)O)C(=O)O)NC(=O)[C@H](CCC(N)=O)NC(=O)[C@H](C)NC(=O)[C@@H](NC(=O)[C@H](CCCCN)NC(=O)[C@H](CC(=O)O)NC(=O)[C@H](CC(C)C)NC(=O)C(C)(C)NC(=O)[C@@H](NC(=O)[C@H](CO)NC(=O)[C@H](Cc1ccc(O)cc1)NC(=O)[C@H](CC(=O)O)NC(=O)[C@H](CO)NC(=O)[C@@H](NC(=O)[C@](C)(Cc1ccccc1)NC(=O)[C@@H](NC(=O)CNC(=O)[C@H](CCC(=O)O)NC(=O)CCNC(=O)C1(c2cccnc2)CCCC1)[C@@H](C)O)[C@@H](C)O)[C@@H](C)CC)[C@@H](C)CC)C(C)C)C(=O)N[C@@H](C)C(=O)NCC(=O)NCC(=O)N1CCC[C@H]1C(=O)N[C@@H](CO)C(=O)N[C@@H](CO)C(=O)NCC(=O)N[C@@H](C)C(=O)N1CCC[C@H]1C(=O)N1CCC[C@H]1C(=O)N1CCC[C@H]1C(=O)N[C@@H](CO)C(N)=O [Compound 234] ({X60-βAla}-EGT[αMeF]TSDYSI[Aib]LDKIAQK([AEEA-AEEA-γGlu-C20 diacid])AFVQWLIAGGPSSGAPPPS-NH2),> 1000 nM,0.1 to 1 nM,105%,< 1000 nM,0.1 to 1 nM,112%
CC[C@H](C)[C@H](NC(=O)[C@H](CC(C)C)NC(=O)[C@H](Cc1c[nH]c2ccccc12)NC(=O)[C@H](CCC(N)=O)NC(=O)[C@@H](NC(=O)[C@H](Cc1ccccc1)NC(=O)[C@H](C)NC(=O)[C@H](CCCCNC(=O)COCCOCCNC(=O)COCCOCCNC(=O)CC[C@H](NC(=O)CCCCCCCCCCCCCCCCCCC(=O)O)C(=O)O)NC(=O)[C@H](CCC(N)=O)NC(=O)[C@H](C)NC(=O)[C@@H](NC(=O)[C@H](CCCCN)NC(=O)[C@H](CC(=O)O)NC(=O)[C@H](CC(C)C)NC(=O)C(C)(C)NC(=O)[C@@H](NC(=O)[C@H](CO)NC(=O)[C@H](Cc1ccc(O)cc1)NC(=O)[C@H](CC(=O)O)NC(=O)[C@H](CO)NC(=O)[C@@H](NC(=O)[C@H](Cc1ccccc1)NC(=O)[C@@H](NC(=O)CNC(=O)[C@H](CCC(=O)O)NC(=O)CCCNC(=O)CNC(=O)Nc1ccc(F)c(F)c1)[C@@H](C)O)[C@@H](C)O)[C@@H](C)CC)[C@@H](C)CC)C(C)C)C(=O)N[C@@H](C)C(=O)NCC(=O)NCC(=O)N1CCC[C@H]1C(=O)N[C@@H](CO)C(=O)N[C@@H](CO)C(=O)NCC(=O)N[C@@H](C)C(=O)N1CCC[C@H]1C(=O)N1CCC[C@H]1C(=O)N1CCC[C@H]1C(=O)N[C@@H](CO)C(N)=O [Compound 264] ({X63-CO}-G[GABA]EGTFTSDYSI[Aib]LDKIAQK([AEEA-AEEA-γGlu-C20 diacid])AFVQWLIAGGPSSGAPPPS-NH2),> 1000 nM,1 to 10 nM,97%,< 1000 nM,1 to 10 nM,106%
